Experimental data: ChEMBL document CHEMBL1201862, “PubChem BioAssay data set” (2004)
The source made the active and inactive calls.

Tests used:
Streptokinase A = target: T1, Streptokinase A (Streptococcus pyogenes serotype M1, UniProt P10520); experiment: viability-normalized secreted streptokinase activity reduction – plasminogen activation absorbance, OD405, dose response (AID 1914); format: functional, Streptococcus pyogenes M1 GAS;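 further: secreted streptokinase activity via plasminogen activation per viability signal from cell pellet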
T1 sequence (P10520 whole entry): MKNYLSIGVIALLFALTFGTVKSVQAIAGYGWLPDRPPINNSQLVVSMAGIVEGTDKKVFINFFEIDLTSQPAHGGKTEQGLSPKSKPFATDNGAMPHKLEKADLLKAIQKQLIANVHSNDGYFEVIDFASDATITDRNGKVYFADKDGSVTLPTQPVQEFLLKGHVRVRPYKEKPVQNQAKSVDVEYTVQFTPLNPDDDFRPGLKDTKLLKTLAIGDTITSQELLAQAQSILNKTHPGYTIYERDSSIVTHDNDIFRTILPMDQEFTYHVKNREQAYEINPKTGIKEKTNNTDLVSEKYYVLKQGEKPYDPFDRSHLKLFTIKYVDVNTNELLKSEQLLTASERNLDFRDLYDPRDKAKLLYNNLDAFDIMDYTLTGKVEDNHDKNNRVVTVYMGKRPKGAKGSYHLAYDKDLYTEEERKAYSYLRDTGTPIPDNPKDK

[1] = microbe, parasite or virus in culture; format: functional; settings: Mycobacterium tuberculosis
Streptococcus = experiment: GAS UMAA2166 growth inhibition – luminescence, BacTiterGlo, counter-screen for streptokinase expression inhibitor project, dose response (AID 1915); format: functional, organism-based;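 further: potency for reduction of bacterial viability or growth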
[2] = tested on: Streptococcus sp. 'group A'; experiment: Streptococcus pyogenes SK(-)GAS viability under kanamycin – luminescence, BacTiterGlo, confirmation, counter-screen for streptokinase expression inhibitor project, dose response (AID 1900); format: functional, organism-based
[3] = target: T2, Heat shock factor protein 1 (Mus musculus, UniProt P38532); experiment: decrease of HSF1-responsive luciferase luminescence – cell-based, NIH3T3, dose retest, confirmation (AID 2382); format: functional;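 further: NIH3T3 fibroblasts with HSF1-driven luciferase reporter stressed by proteasome inhibitor MG132; luminescence from HSF1-driven luciferase expression after 8 hours of MG132 stress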
T2 sequence (P38532 whole entry): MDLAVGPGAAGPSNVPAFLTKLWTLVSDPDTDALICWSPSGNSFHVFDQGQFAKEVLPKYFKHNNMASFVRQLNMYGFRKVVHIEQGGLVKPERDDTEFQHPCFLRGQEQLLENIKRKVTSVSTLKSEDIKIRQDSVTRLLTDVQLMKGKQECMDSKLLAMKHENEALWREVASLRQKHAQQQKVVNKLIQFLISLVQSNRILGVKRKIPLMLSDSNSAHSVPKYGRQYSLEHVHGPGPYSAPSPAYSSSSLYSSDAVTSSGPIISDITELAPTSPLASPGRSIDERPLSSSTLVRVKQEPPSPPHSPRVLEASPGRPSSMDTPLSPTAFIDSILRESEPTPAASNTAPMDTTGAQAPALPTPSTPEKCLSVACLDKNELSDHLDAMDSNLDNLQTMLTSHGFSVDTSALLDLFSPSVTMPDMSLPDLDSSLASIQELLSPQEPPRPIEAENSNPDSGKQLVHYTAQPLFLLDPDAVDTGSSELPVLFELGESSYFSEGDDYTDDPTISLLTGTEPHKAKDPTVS

H9c2 = experiment: cells; format: functional, cell-based; settings: Rattus norvegicus, H9c2, Myocardium;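 further: confirmatory concentration-response retest of ultra-high-throughput screening hits for modulation of myocardial damage; cell death induced by hydrogen peroxide oxidative stress; compound pretreatment for 60 min then peroxide exposure for 2 h; potency is for protecting the cells against peroxide damage rather than for killing them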
[4] = target: T3, Replicative DNA helicase DnaB (Mycobacterium tuberculosis, UniProt P9WMR3); experiment: DnaB intein splicing inhibitors, dose response, biochemical, cell-free fluorescence (AID 449749); format: functional
T3 sequence (P9WMR3 whole entry): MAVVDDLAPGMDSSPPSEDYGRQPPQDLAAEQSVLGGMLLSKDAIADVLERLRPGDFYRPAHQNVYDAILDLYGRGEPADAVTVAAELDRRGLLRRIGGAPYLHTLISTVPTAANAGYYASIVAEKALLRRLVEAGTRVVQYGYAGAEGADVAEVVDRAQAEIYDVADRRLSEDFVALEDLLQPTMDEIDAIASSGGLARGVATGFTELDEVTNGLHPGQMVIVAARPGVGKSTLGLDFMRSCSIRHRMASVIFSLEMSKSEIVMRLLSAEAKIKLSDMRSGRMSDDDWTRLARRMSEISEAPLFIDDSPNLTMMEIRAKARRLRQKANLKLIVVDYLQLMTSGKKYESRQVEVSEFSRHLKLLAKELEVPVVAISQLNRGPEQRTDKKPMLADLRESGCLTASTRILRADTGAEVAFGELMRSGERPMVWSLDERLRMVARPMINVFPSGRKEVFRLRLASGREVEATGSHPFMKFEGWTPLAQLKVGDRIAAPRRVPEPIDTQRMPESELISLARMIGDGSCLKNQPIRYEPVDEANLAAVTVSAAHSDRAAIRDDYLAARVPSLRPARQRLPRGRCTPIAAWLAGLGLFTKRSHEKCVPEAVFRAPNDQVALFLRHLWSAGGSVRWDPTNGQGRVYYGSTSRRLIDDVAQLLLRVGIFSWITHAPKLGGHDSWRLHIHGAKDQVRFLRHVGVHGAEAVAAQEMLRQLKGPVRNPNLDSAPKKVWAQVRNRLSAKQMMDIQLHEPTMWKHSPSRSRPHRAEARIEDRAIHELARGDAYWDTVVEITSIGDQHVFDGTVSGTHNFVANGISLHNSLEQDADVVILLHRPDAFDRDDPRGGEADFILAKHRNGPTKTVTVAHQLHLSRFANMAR

Protein RecA = target: T4, Protein RecA (Mycobacterium tuberculosis, UniProt P9WHJ3); experiment: Fluorescence Cell-Free Homogeneous Dose Retest to Identify Inhibitors of RecA-Intein Splicing Activity. [Related pubchem assays (depositor defined):AID2097, AID2223, AID489010, AID492950]; format: functional
T4 sequence (P9WHJ3 whole entry): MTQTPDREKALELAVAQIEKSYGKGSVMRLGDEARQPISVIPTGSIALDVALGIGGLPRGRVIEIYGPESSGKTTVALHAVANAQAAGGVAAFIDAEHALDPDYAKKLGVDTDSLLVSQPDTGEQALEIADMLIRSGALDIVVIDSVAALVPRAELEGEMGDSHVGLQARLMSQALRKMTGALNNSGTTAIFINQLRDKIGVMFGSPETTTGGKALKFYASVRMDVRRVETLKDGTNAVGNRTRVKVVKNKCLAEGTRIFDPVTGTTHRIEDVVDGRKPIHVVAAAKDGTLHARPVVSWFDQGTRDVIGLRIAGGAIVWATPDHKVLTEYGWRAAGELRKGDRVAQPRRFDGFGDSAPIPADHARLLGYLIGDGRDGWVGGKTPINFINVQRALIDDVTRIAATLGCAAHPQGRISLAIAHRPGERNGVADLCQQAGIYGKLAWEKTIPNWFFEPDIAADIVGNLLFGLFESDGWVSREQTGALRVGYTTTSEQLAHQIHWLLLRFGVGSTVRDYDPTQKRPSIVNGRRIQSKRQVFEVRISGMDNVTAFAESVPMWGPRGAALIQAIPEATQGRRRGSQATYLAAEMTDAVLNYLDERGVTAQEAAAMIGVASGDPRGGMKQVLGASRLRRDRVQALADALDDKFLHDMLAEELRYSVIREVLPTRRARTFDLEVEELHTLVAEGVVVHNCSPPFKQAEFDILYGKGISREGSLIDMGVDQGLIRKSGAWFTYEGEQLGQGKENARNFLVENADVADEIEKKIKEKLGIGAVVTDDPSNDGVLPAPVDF

[5] = viability of uninfected HEp-2 cells – cell-based, HTS, cytotoxicity control for RSV inhibitor project, dose response (AID 2410); format: functional; settings: human respiratory syncytial virus

CCCc1cc(=O)n2nc(C)c(-c3ccc(Cl)cc3)c2[nH]1
EC50 (Streptokinase A): > 150 µM (not active) | CC50 [1]: 39.5 µM (active) | EC50 (Streptococcus): 11.3 µM (active) | EC50 [2]: 3.37 µM (active)

O=C(Nc1cccc(F)c1)c1cc(-c2ccco2)nc2ccccc12
EC50 [3]: > 195 µM (not active)

Cn1c2c(c(=O)n(C)c1=O)C(c1cccc([N+](=O)[O-])c1)Nc1ccccc1O2 (centres undefined)
IC50 (H9c2): > 79 µM (inactive)

Clc1ccc(-c2nnc(Sc3nc4ccccc4o3)c3ccccc23)cc1
AC50 [4]: 1.58 µM (active) | EC50 (Protein RecA): 0.405 µM (active)

c1ccc(-c2ccc(C3CCCN3)cc2)cc1 (centres undefined)
AC50 [4]: > 380 µM (inactive) | EC50 (Protein RecA): > 380 µM (inactive)

CCCCCCCNC(=O)c1ccc(N2CCC3(CC2)OCCO3)c([N+](=O)[O-])c1
CC50 [1]: > 40 µM (active)

O=C(NCC1CCCN(C2Cc3ccccc3C2)C1)c1cccs1 (centres undefined)
EC50 [3]: > 195 µM (not active)

COc1ccc(CCNC(=O)c2ccc(N(C)S(=O)(=O)c3ccc(C)cc3)cc2)cc1
EC50 [3]: > 195 µM (not active)

COc1ccc(-c2cc(NC=O)c3ncc(-c4ccc(C(C)=O)cc4)n3c2)cn1
IC50 (H9c2): > 79 µM (inactive)

CCN(CCO)c1ncnc2c1sc1nc(C(C)C)c3c(c12)CC(C)(C)OC3
IC50 (H9c2): > 79 µM (inactive)

COC(=O)c1ccc(C(c2c(C)n[nH]c2O)c2c(C)n[nH]c2O)cc1
AC50 [4]: 3.35 µM (active) | EC50 (Protein RecA): 1.94 µM (active)

O=C(CSc1nccn1Cc1ccco1)Nc1cccc(F)c1
EC50 [3]: > 195 µM (not active)

COc1ccc(NC(=O)c2cc(-c3ccc(OC)c(OC)c3)nc3ccccc23)c(OC)c1
IC50 (H9c2): > 79 µM (inactive)

O=C1NC(=O)c2c(Br)c(Br)c(Br)c(Br)c21
IC50 (H9c2): > 79 µM (inactive)

NC(=O)c1nsc(C(=O)N(c2ccccc2)C(C(=O)NC2CCCC2)c2ccc3ncccc3c2)c1N (centres undefined)
IC50 (H9c2): > 79 µM (inactive)

Cc1nn(C)c(C(=O)Nc2cccc(Nc3ccccc3)c2)c1[N+](=O)[O-]
CC50 [5]: 23.1 µM (active)

O=C1c2ccccc2C(=O)N1CCCCN(C(=O)c1ccc(Cl)s1)c1ccc(Cl)cc1
CC50 [5]: 24 µM (active)

O=C(Nc1cccc(F)c1)N1CCC(c2ccccc2)CC1
AC50 [4]: 53.5 µM (active) | EC50 (Protein RecA): > 380 µM (inactive)

COc1cc(-c2cnc3c(NC=O)cc(-c4ccsc4)cn23)cc(OC)c1OC
IC50 (H9c2): > 79 µM (inactive)

CCN(CC(=O)Nc1cc(Cl)ccc1C)C(=O)CCc1nc(O)c2ccccc2n1
IC50 (H9c2): > 79 µM (inactive)

CCn1cc(C(=O)Nc2cccc(NC(C)=O)c2)c2cc(OC)c(OC)cc2c1=O
IC50 (H9c2): 20.3 µM (active)

CCOC(=O)C1=C(CN2CCN(C(=O)c3ccco3)CC2)NC(=O)NC1c1ccc(OC)cc1 (centres undefined)
EC50 [3]: > 195 µM (not active)
